Reference: patent US11987568B2, “Allosteric inhibitor of WEE1 kinase” (H. LEE MOFFITT CANCER CENTER AND RESEARCH INSTITUTE, INC., priority 2018, dated 2024)
≈ marks a conversion by molar mass, not a printed value. Read-outs that look alike come from different tables or passages of the source.

Key:
[1] = system: Cdc2 Tyr15-phosphorylation (pY15-Cdc2); experiment: WEE1 cell cycle inhibitory activity in cells: pY15-Cdc2 immunoblot; type: cell-based, human; conditions: LNCaP cells, 3 uM, 48 hours (FIG. 2A)
From the text: FIGS. 2A-2B show identification of 3 distinct types of inhibitors. […] In addition, the lysates were also subjected to by immunoblotting with […]-Cdc2 or actin antibodies (middle and bottom panels). […] The number vehicle treated cells were used as control and percent of surviving cells were plotted. […] In addition, the lysates were also subjected to immunoblotting with actin antibodies (bottom panel). Identification of compounds with WEE1 epigenetic inhibitory role: 14 'hits' that were identified in the screen are shown in FIG. 1. These compounds were further tested for their ability to inhibit WEE1 epigenetic activity. Prostate cancer derived LNCaP cells were treated with 3 uM of compounds for 48 hours. […] Lysates were also assessed for WEE1 cell cycle inhibitory activity by determining Cdc2 Tyr15-phosphorylation ([…]-Cdc2). […] These are named as 'Cell Cycle' inhibitors. […] These compounds are the 'Epigenetic' inhibitors.

WEE1 = WEE1 (Homo sapiens, UniProt P30291); experiment: Endogenous WEE1 auto-phosphorylation in cells (WEE1 IP, pTyr immunoblot); type: cell-based; conditions: LNCaP cells, 10 μM overnight (FIG. 3B)
WEE1, sequence (P30291 whole entry): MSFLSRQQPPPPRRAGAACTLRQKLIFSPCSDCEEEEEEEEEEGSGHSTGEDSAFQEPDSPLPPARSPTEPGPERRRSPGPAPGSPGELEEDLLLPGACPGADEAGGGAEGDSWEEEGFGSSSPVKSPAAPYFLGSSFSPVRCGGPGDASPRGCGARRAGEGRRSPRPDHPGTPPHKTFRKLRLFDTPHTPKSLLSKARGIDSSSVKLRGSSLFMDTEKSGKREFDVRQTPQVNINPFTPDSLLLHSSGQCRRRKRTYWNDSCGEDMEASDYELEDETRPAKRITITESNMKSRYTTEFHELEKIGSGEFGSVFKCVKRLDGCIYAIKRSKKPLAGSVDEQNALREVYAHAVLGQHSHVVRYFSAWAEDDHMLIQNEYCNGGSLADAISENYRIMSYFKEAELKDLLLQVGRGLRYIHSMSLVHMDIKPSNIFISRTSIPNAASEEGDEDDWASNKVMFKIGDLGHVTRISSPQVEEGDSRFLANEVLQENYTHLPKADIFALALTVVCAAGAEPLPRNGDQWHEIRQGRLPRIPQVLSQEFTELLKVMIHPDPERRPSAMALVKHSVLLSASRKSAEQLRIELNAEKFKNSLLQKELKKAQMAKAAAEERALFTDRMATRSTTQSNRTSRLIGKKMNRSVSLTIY
Method: The reaction mix was then subjected to immunoprecipitated with WEE1 antibodies, followed by immunoblotting with pTyr antibodies (top panel). As a control, purified ACK1 protein was incubated in the reaction buffer containing ATP, in presence of 100 nM epigenetic inhibitors. The reaction mix was then subjected to immunoprecipitated with ACK1 antibodies, followed by immunoblotting with pTyr antibodies (bottom panel). […] In addition, the lysates were also subjected to immunoblotting with actin antibodies (bottom panel). […] In addition, the lysates were also subjected to immunoblotting with actin antibodies (bottom panel). […] In addition, the lysates were also subjected to immunoblotting with actin antibodies (bottom panel). To determine direct binding of these compounds causing WEE1 inhibition, a full length WEE1 kinase protein was incubated with the compounds. […] These inhibitors were further validated by assessing their ability to suppress endogenous WEEE activity; LNCaP cells were treated with 10 μM of these compounds overnight.

[2] = system: IDH2 mRNA in melanoma cell line WM66; experiment: IDH2 mRNA qRT-PCR in WM66 cells; type: cell-based; conditions: 10 uM, 16 hr
Method: WM66 cells (FIG. 5A) or primary melanocytes (FIG. 5B) were treated with vehicle or compounds (10 uM) for 16 hr. Total RNA was isolated followed by qRT-PCR with IDH2 and actin primers. FIG. 5C indicated cells were treated with vehicle or compounds (10 uM) for 16 hr. Total genomic DNA was isolated, slot-blotted onto a nitrocellulose membrane, followed by blotting with 5-hmC antibodies (top panels). Blots were also stained with methylene blue, to determine equal loading of DNA (bottom panel).
Identification of 55152 (18-B3) scaffold as a WEE1 epigenetic inhibitor: Two major hits, 367416 (16-G9) and 55152 (18-B3) were taken up for further characterization. […] Accordingly, melanoma cell line WM66 and primary melanocytes were treated with inhibitors and IDH2 mRNA levels were measure by real time PCR.

LogD = type: physicochemical; conditions: pH 7.4
Method: (§1) ADME studies with 55152 (18-B3) and 367416 (16-G9): The solubility, microsome stability and plasma stability of these two compounds were also determined (Table 2).

Solubility = type: physicochemical
Method: as §1

[3] = Microsome Stability, Human; type: in vitro ADME
Method: as §1

[4] = Microsome Stability, Mouse; type: in vitro ADME
Method: as §1

Plasma Stability, Mouse = type: in vitro ADME
Method: as §1

[5] = molecular target: full length human WEE1 kinase (Homo sapiens, UniProt P30291); experiment: In vitro kinase assay, purified full length WEE1, pTyr immunoblot; type: biochemical; design: a full length WEE1 kinase protein was incubated with the compounds; conditions: purified full length WEE1, 100 nM (FIG. 3A, 4A)
full length human WEE1 kinase, sequence (P30291 whole entry): as above
Method: The reaction mix was then subjected to immunoprecipitated with WEE1 antibodies, followed by immunoblotting with pTyr antibodies (top panel). As a control, purified ACK1 protein was incubated in the reaction buffer containing ATP, in presence of 100 nM epigenetic inhibitors. The reaction mix was then subjected to immunoprecipitated with ACK1 antibodies, followed by immunoblotting with pTyr antibodies (bottom panel). […] In addition, the lysates were also subjected to immunoblotting with actin antibodies (bottom panel). […] In addition, the lysates were also subjected to immunoblotting with actin antibodies (bottom panel).
FIGS. 4A-4B show structures of ‘hits’ identified in WEE1 epigenetic inhibitor screen. […] The reaction mix was then subjected to immunoprecipitated with WEE1 antibodies, followed by immunoblotting with pTyr antibodies. […] In addition, the lysates were also subjected to immunoblotting with actin antibodies (bottom panel).
To determine direct binding of these compounds causing WEE1 inhibition, a full length WEE1 kinase protein was incubated with the compounds. […] As a control, purified ACK1 kinase was also incubated with these compounds, none of these compounds were able to inhibit ACK1 kinase activity. These inhibitors were further validated by assessing their ability to suppress endogenous WEEE activity; LNCaP cells were treated with 10 μM of these compounds overnight.

Which “Cdc2 Tyr15-phosphorylation (pY15-Cdc2)” value [1] does the source give for Nc1ccc(NC(=O)c2ccc(C(=O)Nc3ccc(N)cc3)cc2)cc1 [SG5-061, N^1,N^4-bis(4-aminophenyl)terephthalamide] here?
The value was “did not affect Cdc2 Tyr15-phosphotylation”.

And the WEE1 auto-phosphorylation (WEE1)?
The WEE1 auto-phosphorylation was “significant loss of WEE1 auto-phosphorylation”.

And the “IDH2 mRNA levels” value [2]?
Its value is “Significant increase in IDH2 mRNA levels”.

What about the logD (LogD) of the same molecule?
Its logD is 0.98.

What about the solubility (Solubility; aqueous buffer, pH 5.0, read-out: Solubility (ug/mL) pH 5.0) of the same molecule?
Its solubility is 0.13 µg/mL (≈ 0.375 µM).

And the solubility (Solubility; pH 6.2, aqueous buffer, read-out: Solubility (ug/mL) pH 6.2)?
The solubility was 0.22 µg/mL (≈ 0.635 µM).

What about the solubility (Solubility; pH 7.4, aqueous buffer, read-out: Solubility (ug/mL) pH 7.4) of the same molecule?
Its solubility is 0.15 µg/mL (≈ 0.433 µM).

And the “Microsome Stability % remaining @ 1 hr Human” value [3]?
Its value is 64.56%.

And the “Microsome Stability % remaining @ 1 hr Mouse” value [4]?
The value was 95.21%.

What about the “Plasma Stability % remaining @ 3 hrs Mouse” value (Plasma Stability, Mouse) of the same molecule?
Its value is 50.76%.

And the “WEE1 kinase activity (pTyr immunoblot)” value ([5]; listed as 18-B3)?
The value was “suppresses kinase activation better than 16-G9”.

What about the “WEE1 kinase activity (pTyr immunoblot)” value ([5]; listed as 55152 (18-B3)) of the same molecule?
The value was “significant loss of WEE1 kinase activity”.
